Susceptibility, MIC and Relative potency data for 17 compounds are collected here from ChEMBL document CHEMBL1151043, “The synthesis and antibacterial activity of 2-para-quarternary ammoniomethylphenyl-carbapenems” (1993).

Assay [1] concerns the target T1, Dipeptidase 1 (Sus scrofa) (UniProt P22412).
T1 sequence (whole entry): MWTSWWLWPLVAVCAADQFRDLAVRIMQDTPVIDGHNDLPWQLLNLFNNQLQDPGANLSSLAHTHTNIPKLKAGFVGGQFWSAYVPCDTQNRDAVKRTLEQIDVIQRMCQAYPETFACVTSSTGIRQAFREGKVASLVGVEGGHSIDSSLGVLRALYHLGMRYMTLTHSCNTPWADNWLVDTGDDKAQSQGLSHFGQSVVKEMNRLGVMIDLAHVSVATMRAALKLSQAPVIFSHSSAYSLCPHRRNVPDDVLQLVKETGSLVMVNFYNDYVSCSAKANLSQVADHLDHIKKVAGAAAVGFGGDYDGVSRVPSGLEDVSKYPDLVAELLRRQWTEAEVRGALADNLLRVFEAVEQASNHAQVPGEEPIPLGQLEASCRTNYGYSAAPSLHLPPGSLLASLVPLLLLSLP
Nature of the assay: Susceptibility of compound towards porcine Dehydropeptidase-1 relative to imipenem as […] was calculated.

Assay [2] deals with Escherichia coli. Nature of the assay: Minimum inhibitory concentration required for the antibacterial activity against Escherichia coli. The assay is classed as functional.
Assay [3] concerns Enterobacter. Nature of the assay: Minimum inhibitory concentration required for the antibacterial activity against Enterobacter. It is filed as functional.
The subject of assay [4] is Klebsiella. Nature of the assay: Minimum inhibitory concentration required for the antibacterial activity against Klebsiella. It is filed as functional.
The test system of assay [5] is Pseudomonas. Nature of the assay: Minimum inhibitory concentration required for the antibacterial activity against Pseudomonas relative to Thienamycin (1). The assay is classed as functional.
In assay [6] the test system is Proteus. Nature of the assay: Minimum inhibitory concentration required for the antibacterial activity against Proteus. The assay is classed as functional, Proteus sp.
Assay [7] concerns Serratia. Nature of the assay: Minimum inhibitory concentration required for the antibacterial activity against Serratia. The assay is classed as functional.
In assay [8] the test system is Staphylococcus aureus. Nature of the assay: Minimum inhibitory concentration required for the antibacterial activity against Staphylococcus aureus. It is filed as functional.
The subject of assay [9] is Enterococcus. Nature of the assay: Minimum inhibitory concentration required for the antibacterial activity against Enterococcus. The assay is classed as functional.
Assay [10] deals with Enterococcus. Nature of the assay: In vitro antibacterial activity against Enterococcus relative to thienamycin. It is filed as functional.
Assay [11] deals with Escherichia coli. Nature of the assay: In vitro antibacterial activity against Escherichia coli relative to thienamycin. The assay is classed as functional.
For assay [12], the system named is Enterobacter. Nature of the assay: In vitro antibacterial activity against Enterobacter relative to thienamycin. The assay is classed as functional.
Assay [13] has as its system Klebsiella. Nature of the assay: In vitro antibacterial activity against Klebsiella relative to thienamycin. It is filed as functional.
Assay [14] concerns Pseudomonas. Nature of the assay: In vitro antibacterial activity against Pseudomonas relative to thienamycin. The assay is classed as functional.
The test system of assay [15] is Proteus. Nature of the assay: In vitro antibacterial activity against Proteus relative to thienamycin. The assay is classed as functional, Proteus sp.
The subject of assay [16] is Serratia. Nature of the assay: In vitro antibacterial activity against Serratia relative to thienamycin. The assay is classed as functional.
The subject of assay [17] is Staphylococcus aureus. Nature of the assay: In vitro antibacterial activity against Staphylococcus aureus (4) relative to Thienamycin (1). The assay is classed as functional.
For assay [18], the system named is Staphylococcus aureus. Nature of the assay: In vitro antibacterial activity against Staphylococcus aureus relative to thienamycin. It is filed as functional.

Converted amounts (≈) assume the structure as drawn.

Consider `C[C@@H](O)[C@H]1C(=O)N2C(C(=O)O)=C(SCCN)C[C@H]12` [THIENAMYCIN], for which, in assay [1], the Susceptibility was 1. Besides, the MIC against Escherichia coli [2] was determined as 0.37 µg/mL (≈ 1.36 µM); against Enterobacter [3] it was 0.67 µg/mL (≈ 2.46 µM); against Klebsiella [4], 0.88 µg/mL (≈ 3.23 µM); against Pseudomonas [5] it was 1.79 µg/mL (≈ 6.57 µM); with Proteus [6] it was 1.9 µg/mL (≈ 6.98 µM); in the assay on Serratia [7], 0.93 µg/mL (≈ 3.42 µM). The figures for the MIC in the assay on Staphylococcus aureus [8] and in the assay on Enterococcus [9] were 0.03 µg/mL (≈ 0.11 µM) and 3.6 µg/mL (≈ 13.2 µM), respectively.

With `CSCc1ccc[n+](Cc2ccc(C3=C(C(=O)[O-])N4C(=O)[C@H]([C@@H](C)O)[C@H]4C3)cc2)c1`, the Susceptibility in assay [1] was 0.05. Moreover, the Relative potency with Enterococcus [10] came out at 19.7; with Escherichia coli [11], 6.1; in the assay on Enterobacter [12], 10.6; in the assay on Klebsiella [13], 3.7; with Pseudomonas [14], 0.08; with Proteus [15] it was 6.5. Also, the Relative potency was determined as 29.9 in the assay with Serratia [16] and 1.9 with Staphylococcus aureus [17].

For `C[C@@H](O)[C@H]1C(=O)N2C(C(=O)[O-])=C(c3ccc(C[n+]4ccc(CS(=O)(=O)[O-])cc4)cc3)C[C@H]12.[K+]`, in [1], the Susceptibility is 0.06. Further, the Relative potency is on record as 3.5 in the assay on Enterococcus [10]; 6.5 in the assay with Escherichia coli [11]; 9.2 in the assay with Enterobacter [12]; 1.6 in the assay with Klebsiella [13]; 0.04 with Pseudomonas [14]; 9.8 in the assay on Proteus [15]. In addition, the Relative potency worked out at 9.8 in the assay with Serratia [16] and 0.5 with Staphylococcus aureus [17].

Take `C[C@@H](O)[C@H]1C(=O)N2C(C(=O)[O-])=C(c3ccc(C[n+]4cccc(C(=O)[O-])c4)cc3)C[C@H]12.[K+]`: the Relative potency in the assay with Enterococcus [10] is given as 5.3; in the assay with Escherichia coli [11], 6.1; in the assay on Enterobacter [12], 12.1; in the assay with Klebsiella [13], 2; in the assay on Pseudomonas [14] it was 0.08; with Proteus [15], 27.9. Further, the values for the Relative potency with Serratia [16] and in the assay on Staphylococcus aureus [17] were 27.9 and 0.6, respectively.

Consider `Cc1cc[n+](Cc2ccc(C3=C(C(=O)[O-])N4C(=O)[C@H]([C@@H](C)O)[C@H]4C3)cc2)cc1`, for which the Susceptibility in [1] is 0.06. Further, the Relative potency in the assay on Enterococcus [10] stood at 14.9; with Escherichia coli [11], 4.6; in the assay with Enterobacter [12] it was 9.2; in the assay on Klebsiella [13] it was 2.8; with Pseudomonas [14] it was 0.1; in the assay on Proteus [15], 12.1. In addition, the values for the Relative potency in the assay with Serratia [16] and in the assay with Staphylococcus aureus [17] were 22.6 and 1.1, respectively.

In the case of `C[C@@H](O)[C@H]1C(=O)N2C(C(=O)[O-])=C(c3ccc(C[n+]4ccc(CCS(=O)(=O)[O-])cc4)cc3)C[C@H]12.[K+]`, the Susceptibility in [1] was 0.06. Further, the Relative potency with Enterococcus [10] is reported as 4.3; in the assay with Escherichia coli [11] it was 5.7; in the assay on Enterobacter [12], 7; in the assay with Klebsiella [13] it was 1.1; in the assay on Pseudomonas [14], 0.04; with Proteus [15], 17.1. Besides, the Relative potency with Serratia [16] is given as 10.6; in the assay on Staphylococcus aureus [17] it was 0.4.

Turning to `C[C@@H](O)[C@H]1C(=O)N2C(C(=O)[O-])=C(c3ccc(C[n+]4ccc(CN)cc4)cc3)C[C@H]12`, the Susceptibility in assay [1] was 0.04. Besides, the Relative potency in the assay with Enterococcus [10] is listed as 7; in the assay on Escherichia coli [11], 1.7; in the assay on Enterobacter [12] it was 2.6; in the assay on Klebsiella [13] it was 0.8; with Pseudomonas [14] it was 0.05; in the assay with Proteus [15], 4.3. Further, the Relative potency stood at 6.1 with Serratia [16] and 0.5 in the assay on Staphylococcus aureus [17].

As to `C[C@@H](O)[C@H]1C(=O)N2C(C(=O)[O-])=C(c3ccc(C[n+]4cccc(CSCCC#N)c4)cc3)C[C@H]12`, the Susceptibility in assay [1] was 0.05. For the same compound, the Relative potency in the assay on Enterococcus [10] was found to be 8; in the assay on Escherichia coli [11], 8; with Enterobacter [12], 8.6; in the assay on Klebsiella [13], 4.6; with Pseudomonas [14], 0.08; with Proteus [15], 7. Also, the figures for the Relative potency with Serratia [16] and in the assay on Staphylococcus aureus [17] were 14.9 and 1, respectively.

`CO[C@@]1(NC(=O)Cc2cccs2)C(=O)N2C(C(=O)O)=C(COC(N)=O)CS[C@@H]21` [CEFOXITIN]: the Relative potency is recorded as 0.06 in the assay on Enterococcus [10]; 0.1 in the assay on Escherichia coli [11]; 0.03 in the assay on Enterobacter [12]; 0.04 in the assay with Klebsiella [13]; 0.6 in the assay on Proteus [15]; 0.3 with Serratia [16]. Moreover, the Relative potency with Staphylococcus aureus [17] is 0.03.

Regarding `C[C@@H](O)[C@H]1C(=O)N2C(C(=O)[O-])=C(c3ccc(C[n+]4ccc(N5CCSCC5)cc4)cc3)C[C@H]12`, the Susceptibility in assay [1] was 0.09. Besides, the Relative potency in the assay with Enterococcus [10] came to 4.9; in the assay with Escherichia coli [11] it was 5.3; in the assay with Enterobacter [12], 4.6; with Klebsiella [13] it was 1.1; in the assay with Pseudomonas [14], 0.04; with Proteus [15], 7. The values for the Relative potency with Serratia [16] and in the assay with Staphylococcus aureus [18] were 4.9 and 1.2, respectively.

In the case of `C[C@@H](O)[C@H]1C(=O)N2C(C(=O)[O-])=C(c3ccc(C[n+]4ccccc4)cc3)C[C@H]12`, the Susceptibility in assay [1] was 0.07. In addition, the Relative potency was 13 in the assay with Enterococcus [10]; 3.5 in the assay on Escherichia coli [11]; 7 in the assay on Enterobacter [12]; 4.3 with Klebsiella [13]; 0.1 in the assay on Pseudomonas [14]; 9.8 in the assay with Proteus [15]. Besides, the figures for the Relative potency in the assay with Serratia [16] and with Staphylococcus aureus [18] were 9.8 and 1.3, respectively.

Consider `C[C@@H](O)[C@H]1C(=O)N2C(C(=O)[O-])=C(c3ccc(C[n+]4ccccc4N)cc3)C[C@H]12`, for which, in assay [1], the Susceptibility was 0.11. Also, the Relative potency in the assay on Enterococcus [10] is 21.1; in the assay on Escherichia coli [11], 2.8; in the assay on Enterobacter [12], 6.1; with Klebsiella [13], 2.6; in the assay on Pseudomonas [14] it was 0.08; in the assay with Proteus [15], 8. Also, the values for the Relative potency with Serratia [16] and in the assay with Staphylococcus aureus [18] were 11.3 and 1.3, respectively.

Consider `C[C@@H](O)[C@H]1C(=O)N2C(C(=O)O)=C(c3ccc(CN4CCSCC4)cc3)C[C@H]12`, for which, in [1], the Susceptibility is 0.13. Besides, the Relative potency stood at 9.2 with Enterococcus [10]; 2.3 in the assay on Escherichia coli [11]; 3.2 in the assay on Enterobacter [12]; 1.3 with Klebsiella [13]; 0.03 in the assay on Pseudomonas [14]; 7 in the assay with Proteus [15]. In addition, the Relative potency is 7.5 in the assay with Serratia [16] and 0.9 in the assay on Staphylococcus aureus [18].

Turning to `C[C@@H](O)[C@H]1C(=O)N2C(C(=O)O)=C(c3ccc(CN4CCCC4)cc3)C[C@H]12`, the Susceptibility in [1] was 0.04. The Relative potency in the assay on Enterococcus [10] worked out at 12.1; with Escherichia coli [11], 2.8; in the assay with Enterobacter [12] it was 5.7; in the assay with Klebsiella [13], 2.1; with Pseudomonas [14], 0.07; with Proteus [15], 8. Also, the Relative potency in the assay on Serratia [16] is listed as 9.8; in the assay with Staphylococcus aureus [18] it was 0.6.

`C[C@@H](O)[C@H]1C(=O)N2C(C(=O)O)=C(SCCNC=N)C[C@H]12.O` [IMIPENEM]: in assay [1], the Susceptibility is 0.85. The Relative potency in the assay with Enterococcus [10] turned out to be 1.5; in the assay on Escherichia coli [11] it was 1.6; in the assay with Enterobacter [12], 1.8; in the assay with Klebsiella [13], 1.5; in the assay with Pseudomonas [14], 4; with Proteus [15], 1.6. Moreover, the Relative potency in the assay with Serratia [16] and with Staphylococcus aureus [17] was 1.8 throughout.

As for `C[C@@H](O)[C@H]1C(=O)N2C(C(=O)[O-])=C(c3ccc(C[n+]4cccc(C(=O)N(C)C)c4)cc3)C[C@H]12`, the Susceptibility in [1] was 0.05. The Relative potency in the assay on Enterococcus [10] is on record as 5.7; in the assay on Escherichia coli [11] it was 2.3; in the assay on Enterobacter [12], 3.5; in the assay with Klebsiella [13], 1.1; with Pseudomonas [14], 0.04; in the assay with Proteus [15] it was 4.6. In addition, the Relative potency is given as 4 in the assay on Serratia [16] and 0.3 in the assay on Staphylococcus aureus [17].

In the case of `CSc1ccc[n+](Cc2ccc(C3=C(C(=O)[O-])N4C(=O)[C@H]([C@@H](C)O)[C@H]4C3)cc2)c1`, the Susceptibility in assay [1] was 0.06. The Relative potency in the assay on Enterococcus [10] came out at 10.6; with Escherichia coli [11] it was 4.3; with Enterobacter [12] it was 11.3; with Klebsiella [13], 3.7; in the assay on Pseudomonas [14], 0.08; with Proteus [15], 9.2. Also, the Relative potency in the assay with Serratia [16] was determined as 19.7; in the assay on Staphylococcus aureus [17] it was 2.6.
